In PubChem BioAssay (NCI):
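Step 1: Grow cells in 96-well plates. Step 2: Expose to compound for 48 hours at 5 concentrations. Step 3: Interpolate endpoints linearly; if unreached, use highest concentration. The concentration for 50% growth inhibition is given as GI50. At the TGI there is no net growth.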

Tests used:
Test in all cases: NCI tumour cell line growth inhibition, 48 h
A498 renal = system: A498 renal
NCI/ADR-RES ovarian = system: NCI/ADR-RES ovarian
NCI-H460 lung = system: NCI-H460 lung
NCI-H226 lung = system: NCI-H226 lung
MOLT-4 leukemia = system: MOLT-4 leukemia
MDA-MB-231 breast = system: MDA-MB-231 breast
UACC-257 melanoma = system: UACC-257 melanoma
CCRF-CEM leukemia = system: CCRF-CEM leukemia
HCT-116 colon = system: HCT-116 colon
786-0 renal = system: 786-0 renal
SK-MEL-2 melanoma = system: SK-MEL-2 melanoma
PC-3 prostate = system: PC-3 prostate
SF-539 CNS = system: SF-539 CNS
CAKI-1 renal = system: CAKI-1 renal
T-47D breast = system: T-47D breast
K-562 leukemia = system: K-562 leukemia
IGROV1 ovarian = system: IGROV1 ovarian
SW-620 colon = system: SW-620 colon
BT-549 breast = system: BT-549 breast
HT29 colon = system: HT29 colon
SF-295 CNS = system: SF-295 CNS
OVCAR-4 ovarian = system: OVCAR-4 ovarian
COLO 205 colon = system: COLO 205 colon
KM12 colon = system: KM12 colon
NCI-H522 lung = system: NCI-H522 lung
RXF 393 renal = system: RXF 393 renal
HCC-2998 colon = system: HCC-2998 colon
A549 NSCLC = system: A549 NSCLC
U251 CNS = system: U251 CNS
SNB-75 CNS = system: SNB-75 CNS
SNB-19 CNS = system: SNB-19 CNS
ACHN renal = system: ACHN renal
SF-268 CNS = system: SF-268 CNS
UO-31 renal = system: UO-31 renal
UACC-62 melanoma = system: UACC-62 melanoma
SK-OV-3 ovarian = system: SK-OV-3 ovarian
HS 578T breast = system: HS 578T breast
DU-145 prostate = system: DU-145 prostate
M14 melanoma = system: M14 melanoma
HOP-62 NSCLC = system: HOP-62 NSCLC
HL-60(TB) leukemia = system: HL-60(TB) leukemia
HCT-15 colon = system: HCT-15 colon
EKVX NSCLC = system: EKVX NSCLC
SK-MEL-5 melanoma = system: SK-MEL-5 melanoma
MALME-3M melanoma = system: MALME-3M melanoma
SK-MEL-28 melanoma = system: SK-MEL-28 melanoma
SN12C renal = system: SN12C renal
RPMI-8226 leukemia = system: RPMI-8226 leukemia
NCI-H23 lung = system: NCI-H23 lung
LOX IMVI melanoma = system: LOX IMVI melanoma
OVCAR-8 ovarian = system: OVCAR-8 ovarian
MCF7 breast = system: MCF7 breast
OVCAR-5 ovarian = system: OVCAR-5 ovarian
TK-10 renal = system: TK-10 renal
HOP-92 NSCLC = system: HOP-92 NSCLC
MDA-MB-435 = system: MDA-MB-435

## O=C(/C=C/c1csc(Br)n1)NO
A498 renal
  GI50: 1.34 µM
  TGI: 3.21 µM
NCI/ADR-RES ovarian
  GI50: 1.57 µM
  TGI: 8.36 µM
NCI-H460 lung
  GI50: 2.81 µM
  TGI: 41.5 µM
NCI-H226 lung
  GI50: 5.22 µM
  TGI: 20 µM
MOLT-4 leukemia
  GI50: 2.3 µM
  TGI: 10.2 µM
MDA-MB-231 breast
  GI50: 3.51 µM
  TGI: 21.2 µM
UACC-257 melanoma
  GI50: 1.31 µM
  TGI: 4.91 µM
CCRF-CEM leukemia
  GI50: 2.73 µM
  TGI: > 100 µM
HCT-116 colon
  GI50: 1.83 µM
  TGI: 4.51 µM
786-0 renal
  GI50: 3.38 µM
  TGI: 34.7 µM
SK-MEL-2 melanoma
  GI50: 2.62 µM
  TGI: 7.26 µM
PC-3 prostate
  GI50: 3.17 µM
  TGI: 17.6 µM
SF-539 CNS
  GI50: 3.11 µM
  TGI: 14.8 µM
CAKI-1 renal
  GI50: 2.35 µM
  TGI: 7.22 µM
T-47D breast
  GI50: 2.03 µM
  TGI: 5.63 µM
K-562 leukemia
  GI50: 2.61 µM
  TGI: 15.4 µM
IGROV1 ovarian
  GI50: 2.06 µM
  TGI: 5.25 µM
SW-620 colon
  GI50: 1.89 µM
  TGI: 5.52 µM
BT-549 breast
  GI50: 3.84 µM
  TGI: 16.5 µM
HT29 colon
  GI50: 2.31 µM
  TGI: > 100 µM
SF-295 CNS
  GI50: 2.51 µM
  TGI: 6.35 µM
OVCAR-4 ovarian
  GI50: 6.3 µM
  TGI: > 100 µM
COLO 205 colon
  GI50: 1.75 µM
  TGI: 3.36 µM
KM12 colon
  GI50: 3.61 µM
  TGI: 39.5 µM
NCI-H522 lung
  GI50: 2.48 µM
  TGI: 11.2 µM
RXF 393 renal
  GI50: 1.43 µM
  TGI: 3.65 µM
HCC-2998 colon
  GI50: 3.29 µM
  TGI: 11.6 µM
A549 NSCLC
  GI50: 2.45 µM
  TGI: 8.4 µM
U251 CNS
  GI50: 1.9 µM
  TGI: 4.09 µM
SNB-75 CNS
  GI50: 1.83 µM
  TGI: 21 µM
SNB-19 CNS
  GI50: 3.82 µM
  TGI: 88.4 µM
ACHN renal
  GI50: 2.36 µM
  TGI: 6.99 µM
SF-268 CNS
  GI50: 3.22 µM
  TGI: 9.29 µM
UO-31 renal
  GI50: 1.7 µM
  TGI: 4.16 µM
UACC-62 melanoma
  GI50: 1.25 µM
  TGI: 3.2 µM
SK-OV-3 ovarian
  GI50: 1.77 µM
  TGI: 5.09 µM
HS 578T breast
  GI50: 2.05 µM
  TGI: 8.66 µM
DU-145 prostate
  GI50: 3.16 µM
  TGI: 23.1 µM
M14 melanoma
  GI50: 3.3 µM
  TGI: 17.7 µM
HOP-62 NSCLC
  GI50: 2.76 µM
  TGI: 11.5 µM
HL-60(TB) leukemia
  GI50: 2.51 µM
  TGI: 6.58 µM
HCT-15 colon
  GI50: 3.17 µM
  TGI: > 100 µM
EKVX NSCLC
  GI50: 4.23 µM
  TGI: > 100 µM
SK-MEL-5 melanoma
  GI50: 1.82 µM
  TGI: 3.5 µM
MALME-3M melanoma
  GI50: 1.41 µM
  TGI: 8.29 µM
SK-MEL-28 melanoma
  GI50: 3.46 µM
  TGI: > 100 µM
SN12C renal
  GI50: 3.84 µM
  TGI: > 100 µM
RPMI-8226 leukemia
  GI50: 2.64 µM
  TGI: 18.8 µM
NCI-H23 lung
  GI50: 3.01 µM
  TGI: 10.5 µM
LOX IMVI melanoma
  GI50: 1.31 µM
  TGI: 2.69 µM
OVCAR-8 ovarian
  GI50: 2.19 µM
  TGI: 8.33 µM
MCF7 breast
  GI50: 3 µM
  TGI: 16.7 µM
OVCAR-5 ovarian
  GI50: 2.25 µM
  TGI: > 100 µM
TK-10 renal
  GI50: 1.41 µM
  TGI: 6.18 µM
HOP-92 NSCLC
  GI50: 1.3 µM
  TGI: 3.95 µM
MDA-MB-435
  GI50: 2.88 µM
  TGI: 15.3 µM
